Laboratory results taken from US20250129083A1, “IMIDAZOTETRAZINE COMPOUNDS AND TREATMENT OF TMZ-RESISTANT CANCERS” (THE BOARD OF TRUSTEES OF THE UNIVERSITY OF ILLINOIS, priority 2022, published 2025).
Read-outs that look alike come from different tables or passages of the source.

Experiments:
[1] = system: U118MG cells; assay: Cell viability assay (Alamar Blue, 7 days), U118MG; type: cell-based; conditions: Homo sapiens, U-118-MG, 168 h, MGMT (+) MMR (+), 600 c/w, SEM, n=3
Protocol: (§1) Cell Culture and Reagents. All cell lines were grown in a 37° C., 5% CO2, humidified environment, in media containing 1% penicillin/streptomycin. Stable cell line generation of GL261 MGMT+ was purchased from Creative Biogene. Cell culture conditions are as follows: cell lines U87, T98G, and RKO were grown in EMEM with 10% FBS. D54, GL261, GL261 MGMT+, and U118MG cell lines were grown in DMEM with 10% FBS. HCT116 cells were grown in RMPI with 10% FBS. D341 Med cells were grown in EMEM with 20% FBS. Temozolomide (TMZ) was purchased from AK Scientific. TMZ analogues were synthesized as described below. Compounds were dissolved in DMSO (1% final concentration, Fisher Chemical) for cell culture studies.
(§2) Cell Viability Assays. Cells were harvested, seeded in a 96-well plate and allowed to adhere. After three hours, compound was added to each well in DMSO (1% final concentration). Cells were incubated for seven days (unless otherwise noted) before viability was assessed by the Alamar Blue assay. Raptinal (20 μM) was used as a dead control.
(§3) Plated 1500 c/w for GL261; 600 c/w for U87; 600 c/w for U118MG; 1500 c/w for GL261 MGMT+ Incubated ovn and added 1 μL of compound in DMSO the next day. Incubated over 7 days; added Alamar Blue to assess cell viability and used 10 μM Raptinal as dead control. Error is SEM, n=3.

[2] = Solubility in IV formulations; type: physicochemical; conditions: for Solubility in 20/80 DMSO/PBS / Solubility in 15/7/5/73 DMSO/NMP/T20/20% SPE-βCD / Solubility in 15/10/75 DMSO/NMP/20% SPE-βCD: IV formulation; for Solubility in 20/80 DMSO/PBS: 5 mg/mL solution for 100 μL injection; for Solubility in 15/7/5/73 DMSO/NMP/T20/20% SPE-βCD / Solubility in 15/10/75 DMSO/NMP/20% SPE-βCD: 6.6 mg/mL solution for 200 μL injection
[3] = system: expanded panel of GBM cell lines with or without MGMT expression; assay: Cell viability in expanded panel of GBM cell lines; type: cell-based; conditions: for IC50: 168 h, 7 day
Protocol: FIG. 1A-C. Selection and evaluation of MGMT-independent imidazotetrazines. (A) IC50 values (M, 7 days) of TMZ and compound 10 in an expanded panel of GBM cell lines. Cell viability was assessed via the Alamar Blue assay, n≥3, error is SEM. (B) Hydrolytic stability of TMZ at pH 7, 7.4, and 8. Percentage of prodrug remaining was quantified by HPLC, n≥2. (C) Hydrolytic stability of compound 10 at pH 7, 7.4, and 8. Percentage of prodrug remaining was quantified by HPLC, n≥2.
FIG. 2A-F. (A) 7 day IC50 values (M) of compound 10 and CPZ in an expanded panel of GBM cell lines. Cell viability was assessed via the Alamar Blue assay, n≥3, error is SEM. (B-E) 7 day dose-response curves of TMZ and CPZ in cell lines with variable MGMT and MMR status. Error is SEM, n≥3. (F) Killing kinetics of CPZ compared to TMZ in the U87 cell line. Cells were treated with compound once and viability was assessed every 24 hours via Alamar Blue assay. Error is SEM, n≥2.
as §2

[4] = system: GL261 MGMT+ cells; assay: Cell viability assay (Alamar Blue, 7 days), GL261 MGMT+; type: cell-based; conditions: Mus musculus, GL261, 168 h
Protocol: To further explore the ability of CPZ to evade MGMT-mediated resistance, MGMT-expressing T98G cells were pretreated with MGMT inhibitor O6BG followed by treatment with TMZ or CPZ. […] This cell death potentiation by TMZ upon treatment with an MGMT inhibitor was also observed in MGMT-expressing cell lines U118MG and RKO, whereas the efficacy of CPZ was again unaffected. For MGMT (−)/MMR (−) HCT116 cells, negligible potentiation of TMZ cytotoxicity was observed upon pretreatment with O6BG, confirming that loss of MMR capacity, not MGMT expression, was responsible for resistance to TMZ in HCT116 cells. Additionally, human MGMT was knocked into the MGMT-negative mouse glioma cell line, GL261, establishing the novel cell line GL261 MGMT+.
as §1, §2, §3

[5] = system: U87 GBM cell line; assay: Cell viability assay (Alamar Blue, 7 days), U87; type: cell-based, human; conditions: Homo sapiens, 168 h
Protocol: as §1, §2, §3

[6] = Assessment of hematological toxicity; type: in vivo
Description: Arguably the most important question when designing an alkylating agent able to evade MGMT-mediated resistance is the resultant effect on hematological toxicity. MGMT operates as a systemic protectant against alkylating xenobiotics. […] Therefore, an MGMT-independent alkylating agent like CPZ could render off-target cells vulnerable to irreparable DNA alkylation and result in a similar degree of toxicity. We hypothesized that the increased BBB permeability of CPZ would divert enough of the drug to the brain such that it could be tolerated at a therapeutically useful dose. The hematological effects of a single dose of TMZ or CPZ were compared head-to-head in vivo. Mice were treated with 125 mg/kg TMZ or CPZ intravenously; this dose was selected because 125 mg/kg TMZ is known to induce nonlethal toxicity in mice. After 7 days, the mice were sacrificed and complete blood counts were obtained. […] Additionally, the maximum tolerated dose (MTD) of CPZ was determined to be 66 mg/kg when dosed intraperitoneally (IP), once-per-day over five days. This matches the reported MTD of TMZ at the same schedule (˜66 mg/kg).
Assessment of Hematological Toxicity. Male CD-1 IGS mice (n≥3 mice/group) were administered a single dose of 125 mg/kg compound intravenously. Imidazotetrazines were formulated with DMSO, Tween-20, and 30% (w/v) SBE-PCD in sterile water immediately prior to injection. […]

[7] = 7 day dose-response, human MGMT knock-in, read-out: IC50, GL261 MGMT+
[8] = MGMT (+) MMR (+), 7 days, 1500 c/w, SEM, n=3, read-out: Activity, GL261 MGMT+
[9] = MGMT (−) MMR (+), 600 c/w, SEM, n=3, read-out: Activity, U87

Row | Compound | IC50 [1] [µM] | Solubility for IV administration [2] | Solubility in 20/80 DMSO/PBS [2] | Solubility in 15/7/5/73 DMSO/NMP/T20/20% SPE-βCD [2] | Solubility in 15/10/75 DMSO/NMP/20% SPE-βCD [2] | IC50 ([3]; read-out: Average IC50 in MGMT (+) cell lines) [µM] | IC50 ([3]; read-out: Average IC50 in MGMT (−) cell lines) [µM] | IC50 [4, 7] [µM] | IC50 [4, 8] [µM] | IC50 [5, 9] [µM] | Other hematological symptoms such as thrombocytopenia ([6]; mouse, in vivo, iv, 125 mg/kg) | Difference in IC50 values between MGMT-negative and positive cell lines ([3]; expanded GBM panel) [fold] | IC50 ([5]; MGMT (−), Alamar Blue, error SEM, n ≥ 3, read-out: Seven-day IC50, U87) [µM] | White blood cell, lymphocyte, and neutrophil counts ([6]; mice, single 125 mg/kg IV dose, 7 days)
1 | C#CCn1nnc2c(Cl)ncn2c1=O [CPZ, 8-chloro-3-(prop-2-yn-1-yl)imidazo[5,1-d][1,2,3,5]tetrazin-4(3H)-one] | 17 ± 1 | insufficient solubility for IV administration | Insoluble | Insoluble | Insoluble | 22 | 16 | 29 | 29 ± 5 | 16 ± 6 | did not give rise to other hematological symptoms such as thrombocytopenia |  |  | 
2 | Cn1nnc2c(C(N)=O)ncn2c1=O [TMZ, temozolomide, reference compound] | 322 ± 7 |  | Soluble* | Soluble | Soluble |  |  | > 1000 | > 1000 | 51 ± 8 |  | > 6 | ~50 | depletions in white blood cells, lymphocytes, and neutrophils
